From patent publication US9839629B2, “Inhibitors of the renal outer medullary potassium channel” (Merck Sharp & Dohme Corp., priority 2013, dated 2017)

Biological target: T1, ROMK (Kir1.1) channel (Homo sapiens, UniProt P48048)
T1 sequence (P48048 1-391): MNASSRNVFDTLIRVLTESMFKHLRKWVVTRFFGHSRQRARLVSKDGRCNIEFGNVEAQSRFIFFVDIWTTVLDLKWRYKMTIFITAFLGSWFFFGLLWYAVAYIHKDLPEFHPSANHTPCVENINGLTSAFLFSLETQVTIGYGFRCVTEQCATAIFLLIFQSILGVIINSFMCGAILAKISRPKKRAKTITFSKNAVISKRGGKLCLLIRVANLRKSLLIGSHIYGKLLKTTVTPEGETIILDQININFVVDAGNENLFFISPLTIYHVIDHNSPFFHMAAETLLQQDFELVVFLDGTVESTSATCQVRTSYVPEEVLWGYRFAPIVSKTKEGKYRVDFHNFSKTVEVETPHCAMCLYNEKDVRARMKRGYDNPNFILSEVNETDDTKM
Experiment: Thallium Flux Assay
Format: cell-based
How it was run: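 Thallium flux assay as described in WO 2013/062900. Compounds supplied as HCl salts were tested in salt form.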

| Structure (SMILES) | IC50 |
| --- | --- |
| Cc1c([C@@H](O)CN2CCC3(CC2)CCN(C2=CC(=O)CC2)CC3)ccc2c1COC2=O [Example 72, (R)-5-(1-hydroxy-2-(9-(3-oxocyclopent-1-en-1-yl)-3,9-diazaspiro[5.5]undecan-3-yl)ethyl)-4-methylisobenzofuran-1(3H)-one] | 0.439 µM |
| O=C1C=C(N2CCC3(CCN(C(=O)C4CCc5cc(-n6cnnn6)ncc54)CC3)CC2)CO1 (stereo not drawn) [Example 103, 4-(9-{[3-(1H-tetrazol-1-yl)-6,7-dihydro-5H-cyclopenta[c]pyridin-7-yl]carbonyl}-3,9-diazaspiro[5.5]undec-3-yl)furan-2(5H)-one] | 0.132 µM |
| Cc1c([C@H](O)CN2CCC3(CC2)CCN(C2=CC(=O)OC2)CC3)ccc2c1COC2=O [Example 5, (S)-5-(1-hydroxy-2-(9-(5-oxo-2,5-dihydrofuran-3-yl)-3,9-diazaspiro[5.5]undecan-3-yl)ethyl)-4-methylisobenzofuran-1(3H)-one] | 0.063 µM |
| CCOC1OC(=O)C=C1N1CCC2(CCN(C[C@H](O)c3ccc4c(c3C)COC4=O)CC2)CC1 (stereo partly drawn) [Example 92, 5-((1R)-2-(9-(2-ethoxy-5-oxo-2,5-dihydrofuran-3-yl)-3,9-diazaspiro[5.5]undecan-3-yl)-1-hydroxyethyl)-4-methylisobenzofuran-1(3H)-one] | 0.539 µM |
| Cc1c(CC(=O)N2CCC3(CC2)CCN(C2=CC(=O)OC2)CC3)ccc2c1COC2=O [Example 105, 4-methyl-5-{2-oxo-2-[9-(5-oxo-2,5-dihydrofuran-3-yl)-3,9-diazaspiro[5.5]undec-3-yl]ethyl}-2-benzofuran-1(3H)-one] | 0.483 µM |
| O=C1C=C(N2CCC3(CCN(C(=O)Cc4c(F)cc(-n5cnnn5)cc4F)CC3)CC2)CO1 [Example 100, 4-(9-{[2,6-difluoro-4-(1H-tetrazol-1-yl)phenyl]acetyl}-3,9-diazaspiro[5.5]undec-3-yl)furan-2(5H)-one] | 0.408 µM |
| O=C1C=C(N2CCC3(CCN(C(=O)Cc4ccc(-n5cnnn5)nc4)CC3)CC2)CO1 [Example 99, 4-(9-(2-(6-(1H-tetrazol-1-yl)pyridin-3-yl)acetyl)-3,9-diazaspiro[5.5]undecan-3-yl)furan-2(5H)-one] | 0.109 µM |
| CO[C@H]1CN(C2=C(C)C(=O)OC2)CCC12CCN(C[C@H](O)c1ccc3c(c1C)COC3=O)CC2 [Example 97, 5-{(1R)-1-hydroxy-2-[(7R)-7-methoxy-9-(4-methyl-5-oxo-2,5-dihydrofuran-3-yl)-3,9-diazaspiro[5.5]undec-3-yl]ethyl}-4-methyl-2-benzofuran-1(3H)-one] | 0.042 µM |

The remaining lines, values ahead:

| IC50 | Structure (SMILES) |
| --- | --- |
| 0.033 µM | CC1=C(N2CCC3(CCN(C[C@H](O)c4ccnc(-n5cnnn5)c4)CC3)CC2)COC1=O [Example 61, (R)-4-(9-(2-(2-(1H-tetrazol-1-yl)pyridin-4-yl)-2-hydroxyethyl)-3,9-diazaspiro[5.5]undecan-3-yl)-3-methylfuran-2(5H)-one] |
| 0.013 µM | CC1=C(N2CCC3(CCN(C[C@H](O)c4ccc(-n5cnnn5)nc4)CC3)CC2)COC1=O [Example 47, (R)-4-(9-(2-(6-(1H-tetrazol-1-yl)pyridin-3-yl)-2-hydroxyethyl)-3,9-diazaspiro[5.5]undecan-3-yl)-3-methylfuran-2(5H)-one] |
| 0.765 µM | Cc1c(N2CCC3(CCN(C[C@@H](O)c4ccc(-n5cnnn5)nn4)CC3)CC2)c(=O)c1=O [Example 84, (R)-3-(9-(2-(6-(1H-tetrazol-1-yl)pyridazin-3-yl)-2-hydroxyethyl)-3,9-diazaspiro[5.5]undecan-3-yl)-4-methylcyclobut-3-ene-1,2-dione] |
| 0.022 µM | CC1=C(N2CCC3(CCN(C[C@H](O)c4cccc(-n5cnnn5)n4)CC3)CC2)COC1=O [Example 6A, (S)-4-(9-(2-(6-(1H-tetrazol-1-yl)pyridin-2-yl)-2-hydroxyethyl)-3,9-diazaspiro[5.5]undecan-3-yl)-3-methylfuran-2(5H)-one] |
| 0.039 µM | CC1=C(N2CCC3(CCN(C[C@@H](O)c4ccnc(-n5cnnn5)c4)CC3)CC2)COC1=O [Example 62, (S)-4-(9-(2-(2-(1H-tetrazol-1-yl)pyridin-4-yl)-2-hydroxyethyl)-3,9-diazaspiro[5.5]undecan-3-yl)-3-methylfuran-2(5H)-one] |
| 0.016 µM | Cc1nc(-n2cnnn2)ccc1[C@@H](O)CN1CCC2(CC1)CCN(C1=C(C3CC3)C(=O)OC1)CC2 (stereo in doubt) [Example 43, 3-cyclopropyl-4-(9-(2-hydroxy-2-(2-methyl-6-(1H-tetrazol-1-yl)pyridin-3-yl)ethyl)-3,9-diazaspiro[5.5]undecan-3-yl)furan-2(5H)-one] |
| 0.016 µM | O=C1C=C(N2CCC3(CCN(C[C@H](O)c4ccc(-n5cnnn5)nc4)CC3)CC2)CO1 [Example 18, (R)-4-(9-(2-(6-(1H-tetrazol-1-yl)pyridin-3-yl)-2-hydroxyethyl)-3,9-diazaspiro[5.5]undecan-3-yl)furan-2(5H)-one] |
